Experimental data reported in patent EP1171107B1, “USE OF A PHARMACEUTICAL COMPOSITION IN THE MANUFACTURE OF A MEDICAMENT FOR THE TREATMENT OF PATHOLOGICAL CONDITIONS OF THE EYE CAUSED BY BACTERIA, VIRUSES, FUNGI, YEASTS AND PROTOZOA” (Dr. GERHARD MANN chem.-pharm. Fabrik GmbH, priority 1999, dated 2000).

Columns and labels:
Assay type in all cases: cell-based
[1] = tested on: S.epidermidis; assay: Qualitative examination: enrichment of the inoculated test preparation in broth
How it was run: (§1)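 Test preparations (5 ml) were inoculated with ca. 10^5 CFU/ml and sampled after 2, 6, 8, 24, 32, 48 and 72 h. Cells were pelleted, washed and resuspended in NaCl-peptone buffer; 2 ml went into 20 ml Caso broth (Fildes medium for H. influenzae), incubated up to 4 days at 33±2°C.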

[2] = tested on: S.aureus; assay: as above
How it was run: as §1

[3] = tested on: Sc. pneumoniae; assay: as above
How it was run: as §1

[4] = tested on: E.coli; assay: as above
How it was run: as §1

[5] = tested on: P.aeruginosa; assay: as above
How it was run: as §1

[6] = tested on: H.influenzae; assay: as above
How it was run: as §1

[7] = tested on: S.epidermidis; assay: Quantitative germ count (re-isolation, surface method) after inoculating the test preparation; details: Ausgangskeimzahl 2,1 x 10^5 KBE/ml
How it was run: (§2)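 Test preparations were contaminated with ca. 10^5 CFU/ml of each strain, then sampled at 2, 6, 8, 24, 32, 48 and 72 h. Cells were centrifuged 10 min at 3000 rpm, washed in NaCl-peptone buffer, resuspended and spiral-plated on Caso agar at 33±2°C for max. 4 days. Detection limit was 100 CFU/ml.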

[8] = tested on: P.aeruginosa; assay: as above; details: Ausgangskeimzahl 2,7 x 10^5 KBE/ml
How it was run: as §2

[9] = tested on: Sc. pneumoniae; assay: as above; details: Ausgangskeimzahl 3,7 x 10^5 KBE/ml
How it was run: as §2

[10] = tested on: E.coli; assay: as above; details: Ausgangskeimzahl 2,7 x 10^5 KBE/ml
[11] = tested on: H.influenzae; assay: as above; details: Ausgangskeimzahl 2,8 x 10^5 KBE/ml
How it was run: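 Surviving germs were counted by the surface method: an aliquot was spiral-plated on Kochblut-Agar and incubated at 33±2°C for max. 4 Tage, giving re-isolated counts in KBE/ml with a detection limit of 100 KBE/ml. Initial germ counts were also set by spiral-plater surface plating. The H. influenzae strain was pretested biochemically for identity and purity.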

Substance: Benzalkoniumchlorid [Benzalkoniumchlorid 0,0025 Gew.-%]
- Ergebnis der Reisolierung qualitiativ (+/-) nach Anreicherung ([1]; 2 h after inoculation): - -
- Ergebnis der Reisolierung qualitiativ (+/-) nach Anreicherung ([1]; 4 h after inoculation): -
- Ergebnis der Reisolierung qualitiativ (+/-) nach Anreicherung ([1]; 6 h after inoculation): -
- Ergebnis der Reisolierung qualitiativ (+/-) nach Anreicherung ([1]; 8 h after inoculation): -
- Ergebnis der Reisolierung qualitiativ (+/-) nach Anreicherung ([1]; 24 h after inoculation): -
- Ergebnis der Reisolierung qualitiativ (+/-) nach Anreicherung ([1]; 32 h after inoculation): -
- Ergebnis der Reisolierung qualitiativ (+/-) nach Anreicherung ([1]; 48 h after inoculation): -
- Ergebnis der Reisolierung qualitiativ (+/-) nach Anreicherung ([1]; 72 h after inoculation): -
- Ergebnis der Reisolierung qualitiativ (+/-) nach Anreicherung ([2]; 2 h after inoculation): -
- Ergebnis der Reisolierung qualitiativ (+/-) nach Anreicherung ([2]; 4 h after inoculation): -
- Ergebnis der Reisolierung qualitiativ (+/-) nach Anreicherung ([2]; 6 h after inoculation): -
- Ergebnis der Reisolierung qualitiativ (+/-) nach Anreicherung ([2]; 8 h after inoculation): -
- Ergebnis der Reisolierung qualitiativ (+/-) nach Anreicherung ([2]; 24 h after inoculation): -
- Ergebnis der Reisolierung qualitiativ (+/-) nach Anreicherung ([2]; 32 h after inoculation): -
- Ergebnis der Reisolierung qualitiativ (+/-) nach Anreicherung ([2]; 48 h after inoculation): -
- Ergebnis der Reisolierung qualitiativ (+/-) nach Anreicherung ([2]; 72 h after inoculation): -
- Ergebnis der Reisolierung qualitiativ (+/-) nach Anreicherung ([3]; 2 h after inoculation): -
- Ergebnis der Reisolierung qualitiativ (+/-) nach Anreicherung ([3]; 4 h after inoculation): -
- Ergebnis der Reisolierung qualitiativ (+/-) nach Anreicherung ([3]; 6 h after inoculation): -
- Ergebnis der Reisolierung qualitiativ (+/-) nach Anreicherung ([3]; 8 h after inoculation): -
- Ergebnis der Reisolierung qualitiativ (+/-) nach Anreicherung ([3]; 24 h after inoculation): -
- Ergebnis der Reisolierung qualitiativ (+/-) nach Anreicherung ([3]; 32 h after inoculation): -
- Ergebnis der Reisolierung qualitiativ (+/-) nach Anreicherung ([3]; 48 h after inoculation): -
- Ergebnis der Reisolierung qualitiativ (+/-) nach Anreicherung ([3]; 72 h after inoculation): -
- Ergebnis der Reisolierung qualitiativ (+/-) nach Anreicherung ([4]; 2 h after inoculation): -
- Ergebnis der Reisolierung qualitiativ (+/-) nach Anreicherung ([4]; 4 h after inoculation): -
- Ergebnis der Reisolierung qualitiativ (+/-) nach Anreicherung ([4]; 6 h after inoculation): -
- Ergebnis der Reisolierung qualitiativ (+/-) nach Anreicherung ([4]; 8 h after inoculation): -
- Ergebnis der Reisolierung qualitiativ (+/-) nach Anreicherung ([4]; 24 h after inoculation): -
- Ergebnis der Reisolierung qualitiativ (+/-) nach Anreicherung ([4]; 32 h after inoculation): -
- Ergebnis der Reisolierung qualitiativ (+/-) nach Anreicherung ([4]; 48 h after inoculation): -
- Ergebnis der Reisolierung qualitiativ (+/-) nach Anreicherung ([4]; 72 h after inoculation): -
- Ergebnis der Reisolierung qualitiativ (+/-) nach Anreicherung ([5]; 2 h after inoculation): - -
- Ergebnis der Reisolierung qualitiativ (+/-) nach Anreicherung ([5]; 4 h after inoculation): -
- Ergebnis der Reisolierung qualitiativ (+/-) nach Anreicherung ([5]; 6 h after inoculation): -
- Ergebnis der Reisolierung qualitiativ (+/-) nach Anreicherung ([5]; 8 h after inoculation): -
- Ergebnis der Reisolierung qualitiativ (+/-) nach Anreicherung ([5]; 24 h after inoculation): -
- Ergebnis der Reisolierung qualitiativ (+/-) nach Anreicherung ([5]; 32 h after inoculation): -
- Ergebnis der Reisolierung qualitiativ (+/-) nach Anreicherung ([5]; 48 h after inoculation): -
- Ergebnis der Reisolierung qualitiativ (+/-) nach Anreicherung ([5]; 72 h after inoculation): -
- Ergebnis der Reisolierung qualitiativ (+/-) nach Anreicherung ([6]; 2 h after inoculation): -
- Ergebnis der Reisolierung qualitiativ (+/-) nach Anreicherung ([6]; 4 h after inoculation): -
- Ergebnis der Reisolierung qualitiativ (+/-) nach Anreicherung ([6]; 6 h after inoculation): -
- Ergebnis der Reisolierung qualitiativ (+/-) nach Anreicherung ([6]; 8 h after inoculation): -
- Ergebnis der Reisolierung qualitiativ (+/-) nach Anreicherung ([6]; 24 h after inoculation): -
- Ergebnis der Reisolierung qualitiativ (+/-) nach Anreicherung ([6]; 32 h after inoculation): -
- Ergebnis der Reisolierung qualitiativ (+/-) nach Anreicherung ([6]; 48 h after inoculation): -
- Ergebnis der Reisolierung qualitiativ (+/-) nach Anreicherung ([6]; 72 h after inoculation): -
- Ergebnis der Reisolierung (in KBE/ml) ([7]; 2 h after inoculation): <100 KBE/ml
- Ergebnis der Reisolierung (in KBE/ml) ([7]; 4 h after inoculation): <100 KBE/ml
- Ergebnis der Reisolierung (in KBE/ml) ([7]; 6 h after inoculation): <100 KBE/ml
- Ergebnis der Reisolierung (in KBE/ml) ([7]; 8 h after inoculation): <100 KBE/ml
- Ergebnis der Reisolierung (in KBE/ml) ([7]; 24 h after inoculation): <100 KBE/ml
- Ergebnis der Reisolierung (in KBE/ml) ([7]; 32 h after inoculation): <100 KBE/ml
- Ergebnis der Reisolierung (in KBE/ml) ([7]; 48 h after inoculation): <100 KBE/ml
- Ergebnis der Reisolierung (in KBE/ml) ([7]; 72 h after inoculation): <100 KBE/ml
- Ergebnis der Reisolierung (in KBE/ml) ([8]; 2 h after inoculation): <100 KBE/ml
- Ergebnis der Reisolierung (in KBE/ml) ([8]; 4 h after inoculation): <100 KBE/ml
- Ergebnis der Reisolierung (in KBE/ml) ([8]; 6 h after inoculation): <100 KBE/ml
- Ergebnis der Reisolierung (in KBE/ml) ([8]; 8 h after inoculation): <100 KBE/ml
- Ergebnis der Reisolierung (in KBE/ml) ([8]; 24 h after inoculation): <100 KBE/ml
- Ergebnis der Reisolierung (in KBE/ml) ([8]; 32 h after inoculation): <100 KBE/ml
- Ergebnis der Reisolierung (in KBE/ml) ([8]; 48 h after inoculation): <100 KBE/ml
- Ergebnis der Reisolierung (in KBE/ml) ([8]; 72 h after inoculation): <100 KBE/ml
- Ergebnis der Reisolierung (in KBE/ml) ([9]; 2 h after inoculation): <100 KBE/ml
- Ergebnis der Reisolierung (in KBE/ml) ([9]; 4 h after inoculation): <100 KBE/ml
- Ergebnis der Reisolierung (in KBE/ml) ([9]; 6 h after inoculation): <100 KBE/ml
- Ergebnis der Reisolierung (in KBE/ml) ([9]; 8 h after inoculation): <100 KBE/ml
- Ergebnis der Reisolierung (in KBE/ml) ([9]; 24 h after inoculation): <100 KBE/ml
- Ergebnis der Reisolierung (in KBE/ml) ([9]; 32 h after inoculation): <100 KBE/ml
- Ergebnis der Reisolierung (in KBE/ml) ([9]; 48 h after inoculation): <100 KBE/ml
- Ergebnis der Reisolierung (in KBE/ml) ([9]; 72 h after inoculation): <100 KBE/ml
- Ergebnis der Reisolierung (in KBE/ml) ([10]; 2 h after inoculation): <100 KBE/ml
- Ergebnis der Reisolierung (in KBE/ml) ([10]; 4 h after inoculation): <100 KBE/ml
- Ergebnis der Reisolierung (in KBE/ml) ([10]; 6 h after inoculation): <100 KBE/ml
- Ergebnis der Reisolierung (in KBE/ml) ([10]; 8 h after inoculation): <100 KBE/ml
- Ergebnis der Reisolierung (in KBE/ml) ([10]; 24 h after inoculation): <100 KBE/ml
- Ergebnis der Reisolierung (in KBE/ml) ([10]; 32 h after inoculation): <100 KBE/ml
- Ergebnis der Reisolierung (in KBE/ml) ([10]; 48 h after inoculation): <100 KBE/ml
- Ergebnis der Reisolierung (in KBE/ml) ([10]; 72 h after inoculation): <100 KBE/ml
- Ergebnis der Reisolierung (in KBE/ml) ([11]; 2 h after inoculation): <100 KBE/ml
- Ergebnis der Reisolierung (in KBE/ml) ([11]; 4 h after inoculation): <100 KBE/ml
- Ergebnis der Reisolierung (in KBE/ml) ([11]; 6 h after inoculation): <100 KBE/ml
- Ergebnis der Reisolierung (in KBE/ml) ([11]; 8 h after inoculation): <100 KBE/ml
- Ergebnis der Reisolierung (in KBE/ml) ([11]; 24 h after inoculation): <100 KBE/ml
- Ergebnis der Reisolierung (in KBE/ml) ([11]; 32 h after inoculation): <100 KBE/ml
- Ergebnis der Reisolierung (in KBE/ml) ([11]; 48 h after inoculation): <100 KBE/ml
- Ergebnis der Reisolierung (in KBE/ml) ([11]; 72 h after inoculation): <100 KBE/ml
